Measurements from ChEMBL document CHEMBL1122390, “2-benzazepines. 5. Synthesis of pyrimido[5,4-d][2]benzazepines and their evaluation as anxiolytic agents” (J Med Chem, 1983).

Columns and labels:
Mus musculus [1] = assay: Effective dose required for anxiolytic activity in mice when administered perorally (Antipentylene tetrazole test); format: functional; conditions: po
Mus musculus [2] = assay: Effective dose required for anxiolytic activity in mice when administered perorally (Inclined screen test); format: functional; conditions: po
[3] = biological target: GABA-A receptor; anion channel; assay: Binding affinity measured by [3H]diazepam binding assay in rat
Mus musculus [4] = assay: Effective dose required for anxiolytic activity in mice when administered perorally (Rotarod test); format: functional; conditions: po
Monkey [5] = assay: Minimum effective dose required for anticonflict effect in monkey when administered perorally; format: functional; conditions: Cercopithecidae, in Primates, po; read-out: MED
Felis catus [6] = assay: Minimum effective dose required for drug induced ataxia (observable symptomatology) in cat when administered perorally.; format: functional; conditions: po, read-out: MED
Mus musculus [7] = assay: (§1) Effective dose required for ethanol interaction in mouse when administered perorally; format: functional; conditions: po
Monkey [8] = assay: Highest dose required for depressant effect when administered perorally; format: functional, Cercopithecidae
Rattus norvegicus [9] = assay: Minimum effective dose required for anticonflict effect in rat when administered perorally; format: functional; conditions: po, read-out: MED
Rattus norvegicus [10] = assay: Lowest dose required for depressant effect (significant decrease in unpunished responding) in rat when administered perorally; format: functional
Mus musculus [11] = assay: Effective dose required for anxiolytic activity in mice when administered perorally ( Rotarod test); format: functional; conditions: po
Felis catus [12] = assay: Minimum effective dose required for drug induced ataxia (observable symptomatology) in cat when administered perorally; format: functional; conditions: po, read-out: MED
Mus musculus [13] = assay: as §1; conditions: po

Structure (SMILES) | ED50 (Mus musculus [1]) | ED50 (Mus musculus [2]) | IC50 [3] | ED50 (Mus musculus [4]) | other results
Cc1ncc2c(n1)-c1ccc(Cl)cc1C(c1ccccc1Cl)=[N+]([O-])C2 | 0.72 mg/kg | > 400 mg/kg | 15 nM | 6.3 mg/kg | –
Nc1ncc2c(n1)-c1ccccc1C(c1ccccc1)=NC2 | 17 mg/kg | – | 60 nM | – | –
Cc1ncc2c(n1)-c1ccc(Cl)cc1C(c1ccccc1Cl)N(C)C2 (stereo not drawn) | 7.7 mg/kg | > 400 mg/kg | 25 nM | 74 mg/kg | –
Nc1ncc2c(n1)-c1ccc(Cl)cc1C(c1ccccc1Cl)=NC2 | 0.07 mg/kg | > 400 mg/kg | 2.6 nM | 1.4 mg/kg | –
Fc1ccccc1C1=NCc2cnc(Cl)nc2-c2ccc(Cl)cc21 | 4.7 mg/kg | > 400 mg/kg | 5.3 nM | 24 mg/kg | –
CC1=NCC2CNC(c3ccccc3Cl)c3cc(Cl)ccc3C2=N1 (stereo not drawn) | 34 mg/kg | 200 mg/kg | 140 nM | 109 mg/kg | –
CNC(=O)Cc1ncc2c(n1)-c1ccc(Cl)cc1C(c1ccccc1F)=NC2 | 2.3 mg/kg | > 400 mg/kg | 7.6 nM | 4 mg/kg | –
[O-][N+]1=C(c2ccccc2F)c2cc(Cl)ccc2-c2nc(S)ncc2C1 | > 100 mg/kg | > 400 mg/kg | 490 nM | > 200 mg/kg | –
Cc1nc2c(c[n+]1[O-])C[N+]([O-])=C(c1ccccc1Cl)c1cc(Cl)ccc1-2 | 2.7 mg/kg | 240 mg/kg | 31 nM | 5.6 mg/kg | –
Cc1ncc2c(n1)-c1ccc(Cl)cc1C(c1ccccc1Cl)NC2 (stereo not drawn) | 2.3 mg/kg | > 400 mg/kg | 30 nM | 18 mg/kg | –
[O-][N+]1=C(c2ccccc2Cl)c2cc(Cl)ccc2-c2ncncc2C1 | 0.87 mg/kg | 141 mg/kg | 39 nM | 4.9 mg/kg | –
CNc1ncc2c(n1)-c1ccc(Cl)cc1C(c1ccccc1F)=NC2 | 0.58 mg/kg | > 400 mg/kg | 2.8 nM | 4 mg/kg | –
Cc1ncc2c(n1)-c1ccccc1C(c1ccccc1)=NC2 | 84 mg/kg | – | 54 nM | 200 mg/kg | –
Nc1ncc2c(n1)-c1ccc(Cl)cc1C(c1ccccc1F)=[N+]([O-])C2 | – | – | 38 nM | – | –
Fc1ccccc1C1=NCc2cncnc2-c2ccc(Cl)cc21 | 0.37 mg/kg | > 400 mg/kg | 3.4 nM | 0.8 mg/kg | –
CN1CCN(c2ncc3c(n2)-c2ccc(Cl)cc2C(c2ccccc2F)=NC3)CC1 | 1.2 mg/kg | > 400 mg/kg | 7.1 nM | 16 mg/kg | –
CN(C)CCCNc1ncc2c(n1)-c1ccc(Cl)cc1C(c1ccccc1F)=NC2 | 1.6 mg/kg | 187 mg/kg | 2.3 nM | 16 mg/kg | –

Structure (SMILES) | ED50 (Mus musculus [1]) | ED50 (Mus musculus [2]) | IC50 [3] | ED50 (Mus musculus [4]) | other results
CSc1ncc2c(n1)-c1ccc(Cl)cc1C(c1ccccc1Cl)=NC2 | 13 mg/kg | > 400 mg/kg | 18.5 nM | 33 mg/kg | –
Clc1ccc2c(c1)C(c1ccccc1Cl)NCc1cncnc1-2 (stereo not drawn) | 6.9 mg/kg | > 400 mg/kg | 54 nM | 22 mg/kg | –
Cc1ncc2c(n1)-c1ccc(Cl)cc1C(c1ccccc1F)=NC2 | 6.6 mg/kg | > 400 mg/kg | 3.1 nM | 7.8 mg/kg | –
Cc1ncc2c(n1)-c1ccc(Cl)cc1C(c1ccccc1)=NC2 | 9.3 mg/kg | – | 17 nM | – | –
Clc1ccc2c(c1)C(c1ccccc1Cl)=NCc1cncnc1-2 | 0.59 mg/kg | 215 mg/kg | 2.8 nM | 3.6 mg/kg | minimal effective dose (Monkey [5]): 0.04 mg/kg; minimal effective dose (Felis catus [6]): 0.5 mg/kg; ED50 (Mus musculus [7]): 2.2 mg/kg; HED (Monkey [8]): 5 mg/kg; minimal effective dose (Rattus norvegicus [9]): 0.31 mg/kg; DUR (Rattus norvegicus [10]): 2.5 mg/kg
COc1ncc2c(n1)-c1ccc(Cl)cc1C(c1ccccc1F)=NC2 | 2.6 mg/kg | > 400 mg/kg | 3.5 nM | 9 mg/kg | –
[O-][N+]1=C(c2ccccc2F)c2cc(Cl)ccc2-c2ncncc2C1 | 3.9 mg/kg | 277 mg/kg | 41 nM | 3.95 mg/kg | –
Nc1ncc2c(n1)-c1ccc(Cl)cc1C(c1ccccc1F)=NC2 | 1.1 mg/kg | > 400 mg/kg | 2.8 nM | 5.1 mg/kg | –
Oc1ncc2c(n1)-c1ccc(Cl)cc1C(c1ccccc1F)=NC2 | 6.3 mg/kg | > 400 mg/kg | 9.6 nM | 29 mg/kg | –
Sc1ncc2c(n1)-c1ccc(Cl)cc1C(c1ccccc1Cl)=NC2 | 18 mg/kg | > 400 mg/kg | 270 nM | 214 mg/kg | –
O=C(O)Cc1ncc2c(n1)-c1ccc(Cl)cc1C(c1ccccc1F)=NC2 | 12 mg/kg | > 400 mg/kg | 9.6 nM | – | ED50 (Mus musculus [11]): 30 mg/kg
CC(C)c1ncc2c(n1)-c1ccc(Cl)cc1C(c1ccccc1Cl)=NC2 | 3.8 mg/kg | > 400 mg/kg | 25 nM | 21 mg/kg | –
Nc1ncc2c(n1)-c1ccc(Cl)cc1C(c1ccccc1)=NC2 | 4.9 mg/kg | > 400 mg/kg | 17 nM | 19 mg/kg | –
Cc1ncc2c(n1)-c1ccc(Cl)cc1C(c1ccccc1Cl)=NC2 | 0.74 mg/kg | > 400 mg/kg | 9.2 nM | 7.2 mg/kg | –
CCOC(=O)Cc1ncc2c(n1)-c1ccc(Cl)cc1C(c1ccccc1F)=NC2 | 13 mg/kg | – | 20 nM | > 200 mg/kg | –
CN(C)c1ncc2c(n1)-c1ccc(Cl)cc1C(c1ccccc1F)=NC2 | 1.1 mg/kg | > 400 mg/kg | 8.2 nM | 2.2 mg/kg | –
CN1C(=O)CN=C(c2ccccc2)c2cc(Cl)ccc21 [DIAZEPAM] | 1.4 mg/kg | > 25 mg/kg | – | 3.2 mg/kg | minimal effective dose (Monkey [5]): 0.31 mg/kg; minimal effective dose (Felis catus [12]): 0.2 mg/kg; HED (Monkey [8]): 20 mg/kg; minimal effective dose (Rattus norvegicus [9]): 1.25 mg/kg; DUR (Rattus norvegicus [10]): 20 mg/kg; ED50 (Mus musculus [13]): 0.97 mg/kg
